pEC50: −log10 of the molar value.
Assays:
Ih = settings: applied intracellularly at 5 or 10 mM (Perkins et al. 1995); cited from earlier work
[1] = system: preclinical models of neuropathic pain; settings: Chaplan 1999; cited from earlier work
CFA-injected rats = experiment: Tactile allodynia (von Frey) in complete Freund's adjuvant (CFA) paw model of inflammatory pain; format: in vivo, rat; settings: i.p., ZD7288 10 mg/kg, ibuprofen 30 mg/kg, morphine 3 mg/kg, gabapentin 100 mg/kg
[2] = system: native Ih in normal rat L4 dorsal root ganglion neurons; experiment: Whole cell patch clamp of native Ih in dissociated normal rat L4 DRG neurons, lidocaine block; format: cell-based
Protocol: Lidocaine was tested for its effect on Ih expressed in dissociated L4 dorsal root ganglion neurons from uninjured rats to determine whether this well known Na channel blocker could have other mechanisms of action.
DRG were extirpated, dissociated and cultured 3-4 days on poly-D-lysine coated coverslips as described in Example 10. Ih was measured using the whole cell configuration of the patch clamp technique according to the methods described in Example 10 with the exception that the pipette solution was the solution used in Example 3. Neurons were challenged with a family of hyperpolarizing voltage pulses (−60 mV to −150 mV in increments of 10 mV) from a holding potential of −50 mV. Ih was determined at the end of 600 msec duration test pulses. Lidocaine was bath-applied at neutral pH and the percent inhibition of control Ih was determined after lidocaine achieved steady state block. Plotted is the steady state current observed at −134 mV as a percent of control after incubation of lidocaine at the indicated concentrations. […] Lidocaine block was reversible. Data were obtained from 3 cells having control Ih densities of −1.5, −2.0 and −2.2 pA/pF.

[3] = system: Ih in rabbit sinoatrial node; settings: rabbit sinoatrial node (Rocchetti et al. 1999); read-out: ED50 of Ih block previously reported; cited from earlier work
[4] = system: rat mild thermal injury model; experiment: Spontaneous pain behaviors in rat mild thermal injury (first-degree burn) model; format: in vivo; settings: 30 and 60 min after i.p. administration

CC[N+](CC)(CC)CC(=O)Nc1c(C)cccc1C [QX-314]
block of Ih (Ih): blocks Ih

CCCCN1CCCCC1C(=O)Nc1c(C)cccc1C (stereo not shown) [bupivacaine]
anti-hyperalgesic activity [1]: does not possess any anti-hyperalgesic activity

NCC1(CC(=O)O)CCCCC1 [gabapentin]
suppression of CFA-induced tactile allodynia (CFA-injected rats): not

CC(C)Cc1ccc(C(C)C(=O)O)cc1 (stereo not shown) [ibuprofen]
suppression of CFA-induced tactile allodynia (CFA-injected rats): suppressed | suppression of CFA-induced tactile allodynia (CFA-injected rats; listed as Ibuprofen): some efficacy

CCN(CC)CC(=O)Nc1c(C)cccc1C [lidocaine]
reversibility of Ih block [2]: reversible | pEC50 ([2]; bath-applied at neutral pH, current at −134 mV, 3 cells, read-out: ED50 of concentration-dependent block of Ih): 4.64 | pEC50 [3]: 4.42

CN1CC[C@]23c4c5ccc(O)c4O[C@H]2[C@@H](O)C=C[C@H]3[C@H]1C5 [morphine]
suppression of spontaneous pain behaviors [4]: near complete suppression | suppression of CFA-induced tactile allodynia (CFA-injected rats): suppressed
